Results as given in ChEMBL document CHEMBL1137392, “Conformational analysis of an alpha3beta1 integrin-binding peptide from thrombospondin-1: implications for antiangiogenic drug design” (J Med Chem, 2006).
pIC50: −log10 of the molar value. Where a SMILES comes first, the peptide text is derived from it. Bridges are numbered along the chain shown (N, C = ends).

test system: MDA-MB-435; test: Inhibition of alpha3beta1 integrin-dependent adhesion of MDA-MB-435 cells; type: functional, cell-based; conditions: Homo sapiens

Point of comparison: H-FQGVLQQVRFVF-OH, pIC50 4.57. Against it:
- CC(=O)N[C@H](Cc1ccccc1)C(=O)N[C@@H](C(=O)N[C@H](Cc1ccccc1)C(=O)N[C@H](CCCN=C(N)N)C(=O)N[C@@H](C(=O)N[C@H](CC(N)=O)C(=O)N[C@H](CCC(N)=O)C(=O)N[C@H](CC(C)C)C(=O)N[C@@H](C(=O)NCC(=O)N[C@H](CCC(N)=O)C(=O)N[C@H](Cc1ccccc1)C(N)=O)C(C)C)C(C)C)C(C)C — 0.23 log units higher, 4.80
- H-FQGVLQNVAFVF-OH — lower, < 3.52
- H-FQGVLQDVRFVF-OH — 0.32 log units higher, 4.89
- CC(C)[C@@H]1NC(=O)[C@H](CC(N)=O)NC(=O)[C@@H](N)CSSC[C@@H](C(=O)O)NC(=O)[C@H](CCCN=C(N)N)NC1=O (H-CNVRC-OH; disulfide 1-5) — lower, < 3.52
- H-FQGVLQNARFVF-OH — lower, < 3.52
- NC(=O)C[C@@H]1NC(=O)[C@@H](N)CSSC[C@@H](C(=O)O)NC(=O)[C@H](CCCN=C(N)N)NC(=O)CNC1=O (H-CNGRC-OH; disulfide 1-5) — lower, < 3.52
- H-FQGVLQAVRFVF-OH — 1.05 log units lower, 3.52
- H-FQGVLQNLRFVF-OH — 0.20 log units higher, 4.77
